Measured values taken from ChEMBL document CHEMBL3588744, “Structure-Based Optimization of Naphthyridones into Potent ATAD2 Bromodomain Inhibitors” (J Med Chem, 2015).

Tests used:
[1] = Distribution coefficient, log D of the compound at pH 7.4 by chromatographic method; assay type: physicochemical; conditions: octanol/water
[2] = target: T1, Transcription initiation factor TFIID subunit 1 (Homo sapiens, UniProt P21675); experiment: Binding affinity to TAF1 (unknown origin) by BROMOscan panel based assay
T1 sequence (P21675 whole entry): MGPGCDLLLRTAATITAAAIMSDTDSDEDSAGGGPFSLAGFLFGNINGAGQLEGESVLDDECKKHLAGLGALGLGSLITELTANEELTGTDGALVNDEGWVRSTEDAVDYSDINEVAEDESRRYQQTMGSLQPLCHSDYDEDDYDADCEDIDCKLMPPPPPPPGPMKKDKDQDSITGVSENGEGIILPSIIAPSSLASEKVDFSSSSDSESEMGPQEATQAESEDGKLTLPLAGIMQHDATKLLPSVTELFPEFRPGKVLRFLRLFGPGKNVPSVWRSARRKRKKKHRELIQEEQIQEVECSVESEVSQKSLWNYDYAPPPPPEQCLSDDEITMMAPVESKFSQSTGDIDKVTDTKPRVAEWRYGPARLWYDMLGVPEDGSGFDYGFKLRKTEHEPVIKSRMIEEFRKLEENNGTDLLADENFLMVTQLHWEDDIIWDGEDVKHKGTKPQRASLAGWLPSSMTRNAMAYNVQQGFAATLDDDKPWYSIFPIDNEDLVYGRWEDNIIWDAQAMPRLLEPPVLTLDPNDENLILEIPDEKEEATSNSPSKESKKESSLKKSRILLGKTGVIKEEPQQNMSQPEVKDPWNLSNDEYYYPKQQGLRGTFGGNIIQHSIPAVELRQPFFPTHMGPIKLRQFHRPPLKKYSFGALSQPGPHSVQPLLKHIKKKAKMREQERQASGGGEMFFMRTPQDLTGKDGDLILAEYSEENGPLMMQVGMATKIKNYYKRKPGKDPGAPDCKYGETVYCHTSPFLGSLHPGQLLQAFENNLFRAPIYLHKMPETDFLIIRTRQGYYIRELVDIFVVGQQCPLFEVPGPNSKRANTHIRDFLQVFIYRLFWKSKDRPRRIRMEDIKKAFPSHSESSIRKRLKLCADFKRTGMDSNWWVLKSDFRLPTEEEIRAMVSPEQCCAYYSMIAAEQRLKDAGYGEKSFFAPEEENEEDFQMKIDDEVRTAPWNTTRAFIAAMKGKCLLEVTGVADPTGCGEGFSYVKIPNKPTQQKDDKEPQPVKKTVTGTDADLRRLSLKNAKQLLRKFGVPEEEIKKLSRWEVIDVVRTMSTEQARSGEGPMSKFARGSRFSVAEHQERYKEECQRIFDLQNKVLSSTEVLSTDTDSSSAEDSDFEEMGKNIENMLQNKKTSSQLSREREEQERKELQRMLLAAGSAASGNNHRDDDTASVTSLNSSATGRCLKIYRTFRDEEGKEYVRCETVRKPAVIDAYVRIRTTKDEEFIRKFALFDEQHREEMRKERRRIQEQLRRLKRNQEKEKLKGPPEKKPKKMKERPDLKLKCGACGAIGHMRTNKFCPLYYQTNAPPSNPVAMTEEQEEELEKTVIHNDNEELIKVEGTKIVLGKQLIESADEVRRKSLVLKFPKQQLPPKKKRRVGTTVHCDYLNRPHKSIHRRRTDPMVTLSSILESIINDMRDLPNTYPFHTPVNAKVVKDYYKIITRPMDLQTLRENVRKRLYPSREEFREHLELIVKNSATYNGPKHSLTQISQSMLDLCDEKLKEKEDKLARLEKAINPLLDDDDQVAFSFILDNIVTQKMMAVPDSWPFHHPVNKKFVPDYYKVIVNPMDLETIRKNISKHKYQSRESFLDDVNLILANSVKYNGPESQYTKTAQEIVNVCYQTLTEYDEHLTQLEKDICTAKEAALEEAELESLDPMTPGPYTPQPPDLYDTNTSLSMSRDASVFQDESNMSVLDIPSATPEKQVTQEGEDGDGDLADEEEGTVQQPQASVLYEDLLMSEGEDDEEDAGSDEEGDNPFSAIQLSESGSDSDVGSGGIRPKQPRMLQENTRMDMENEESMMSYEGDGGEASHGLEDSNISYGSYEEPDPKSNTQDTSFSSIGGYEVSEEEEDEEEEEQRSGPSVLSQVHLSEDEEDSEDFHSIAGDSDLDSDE

[3] = target: Transcription initiation factor TFIID subunit 1-like (Homo sapiens, UniProt Q8IZX4); experiment: Binding affinity to TAF1L (unknown origin) by BROMOscan panel based assay
[4] = target: Bromodomain and PHD finger-containing protein 3 (Homo sapiens, UniProt Q9ULD4); experiment: Binding affinity to BRPF3 (unknown origin) by BROMOscan panel based assay
[5] = target: Tyrosine-protein kinase BAZ1B (Homo sapiens, UniProt Q9UIG0); experiment: Binding affinity to BAZ1B in human HUT78 cells incubated for 45 mins by mass spectrometry based bromosphere chemoproteomic assay; assay type: cell-based
[6] = target: Bromodomain adjacent to zinc finger domain protein 2A (Homo sapiens, UniProt Q9UIF9); experiment: Binding affinity to BAZ2A in human HUT78 cells incubated for 45 mins by mass spectrometry based bromosphere chemoproteomic assay; assay type: cell-based
[7] = target: T2, Bromodomain-containing protein 2 (Homo sapiens, UniProt P25440); experiment: Binding affinity to BRD2 in human HUT78 cells incubated for 45 mins by mass spectrometry based bromosphere chemoproteomic assay; assay type: cell-based
T2 sequence (P25440 whole entry): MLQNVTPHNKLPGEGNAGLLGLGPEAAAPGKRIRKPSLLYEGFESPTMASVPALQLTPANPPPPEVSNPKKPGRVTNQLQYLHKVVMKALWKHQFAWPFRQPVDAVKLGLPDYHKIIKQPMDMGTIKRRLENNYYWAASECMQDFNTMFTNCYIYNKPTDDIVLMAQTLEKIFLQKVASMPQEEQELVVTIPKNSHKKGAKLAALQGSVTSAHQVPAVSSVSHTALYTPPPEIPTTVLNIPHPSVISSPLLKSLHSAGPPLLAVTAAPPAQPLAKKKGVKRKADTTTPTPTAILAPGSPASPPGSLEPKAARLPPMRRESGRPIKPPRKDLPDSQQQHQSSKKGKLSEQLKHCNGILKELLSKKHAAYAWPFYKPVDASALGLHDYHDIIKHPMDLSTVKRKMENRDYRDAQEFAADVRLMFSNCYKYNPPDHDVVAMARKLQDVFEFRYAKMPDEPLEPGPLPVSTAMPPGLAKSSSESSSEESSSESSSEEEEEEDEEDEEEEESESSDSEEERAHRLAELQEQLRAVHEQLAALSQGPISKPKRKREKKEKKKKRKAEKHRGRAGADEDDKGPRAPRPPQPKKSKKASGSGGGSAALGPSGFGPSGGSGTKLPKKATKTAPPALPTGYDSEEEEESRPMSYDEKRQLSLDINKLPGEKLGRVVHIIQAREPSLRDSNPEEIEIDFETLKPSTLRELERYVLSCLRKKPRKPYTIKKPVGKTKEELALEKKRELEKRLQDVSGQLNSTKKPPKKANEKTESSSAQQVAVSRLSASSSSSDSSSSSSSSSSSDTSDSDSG

[8] = target: T3, Bromodomain-containing protein 3 (Homo sapiens, UniProt Q15059); experiment: Binding affinity to BRD3 in human HUT78 cells incubated for 45 mins by mass spectrometry based bromosphere chemoproteomic assay; assay type: cell-based
T3 sequence (Q15059 whole entry): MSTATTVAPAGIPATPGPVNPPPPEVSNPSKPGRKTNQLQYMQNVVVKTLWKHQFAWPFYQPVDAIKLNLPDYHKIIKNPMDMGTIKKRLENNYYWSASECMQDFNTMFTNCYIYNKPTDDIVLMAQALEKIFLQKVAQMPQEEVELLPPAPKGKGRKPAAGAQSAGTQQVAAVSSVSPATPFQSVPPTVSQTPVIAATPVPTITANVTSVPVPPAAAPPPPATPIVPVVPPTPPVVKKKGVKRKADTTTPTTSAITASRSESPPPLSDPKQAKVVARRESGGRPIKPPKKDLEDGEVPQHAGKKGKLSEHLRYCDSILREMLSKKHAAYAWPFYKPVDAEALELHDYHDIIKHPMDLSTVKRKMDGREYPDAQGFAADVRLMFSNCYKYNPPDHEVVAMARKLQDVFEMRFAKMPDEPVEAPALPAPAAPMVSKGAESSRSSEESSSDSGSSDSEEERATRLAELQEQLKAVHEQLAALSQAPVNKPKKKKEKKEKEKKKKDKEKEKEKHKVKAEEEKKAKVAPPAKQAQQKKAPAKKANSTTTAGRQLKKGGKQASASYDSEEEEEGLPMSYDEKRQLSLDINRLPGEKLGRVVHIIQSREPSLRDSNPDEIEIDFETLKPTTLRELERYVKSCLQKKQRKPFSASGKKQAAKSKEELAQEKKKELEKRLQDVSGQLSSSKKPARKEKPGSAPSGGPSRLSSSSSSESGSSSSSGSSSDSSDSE

[9] = target: T4, Bromodomain-containing protein 4 (Homo sapiens, UniProt O60885); experiment: Binding affinity to BRD4 in human HUT78 cells incubated for 45 mins by mass spectrometry based bromosphere chemoproteomic assay; assay type: cell-based
Peregrin = target: T5, Peregrin (Homo sapiens, UniProt P55201); experiment: Binding affinity to BRPF1 in human HUT78 cells incubated for 45 mins by mass spectrometry based bromosphere chemoproteomic assay; assay type: cell-based
T5 sequence (P55201 whole entry): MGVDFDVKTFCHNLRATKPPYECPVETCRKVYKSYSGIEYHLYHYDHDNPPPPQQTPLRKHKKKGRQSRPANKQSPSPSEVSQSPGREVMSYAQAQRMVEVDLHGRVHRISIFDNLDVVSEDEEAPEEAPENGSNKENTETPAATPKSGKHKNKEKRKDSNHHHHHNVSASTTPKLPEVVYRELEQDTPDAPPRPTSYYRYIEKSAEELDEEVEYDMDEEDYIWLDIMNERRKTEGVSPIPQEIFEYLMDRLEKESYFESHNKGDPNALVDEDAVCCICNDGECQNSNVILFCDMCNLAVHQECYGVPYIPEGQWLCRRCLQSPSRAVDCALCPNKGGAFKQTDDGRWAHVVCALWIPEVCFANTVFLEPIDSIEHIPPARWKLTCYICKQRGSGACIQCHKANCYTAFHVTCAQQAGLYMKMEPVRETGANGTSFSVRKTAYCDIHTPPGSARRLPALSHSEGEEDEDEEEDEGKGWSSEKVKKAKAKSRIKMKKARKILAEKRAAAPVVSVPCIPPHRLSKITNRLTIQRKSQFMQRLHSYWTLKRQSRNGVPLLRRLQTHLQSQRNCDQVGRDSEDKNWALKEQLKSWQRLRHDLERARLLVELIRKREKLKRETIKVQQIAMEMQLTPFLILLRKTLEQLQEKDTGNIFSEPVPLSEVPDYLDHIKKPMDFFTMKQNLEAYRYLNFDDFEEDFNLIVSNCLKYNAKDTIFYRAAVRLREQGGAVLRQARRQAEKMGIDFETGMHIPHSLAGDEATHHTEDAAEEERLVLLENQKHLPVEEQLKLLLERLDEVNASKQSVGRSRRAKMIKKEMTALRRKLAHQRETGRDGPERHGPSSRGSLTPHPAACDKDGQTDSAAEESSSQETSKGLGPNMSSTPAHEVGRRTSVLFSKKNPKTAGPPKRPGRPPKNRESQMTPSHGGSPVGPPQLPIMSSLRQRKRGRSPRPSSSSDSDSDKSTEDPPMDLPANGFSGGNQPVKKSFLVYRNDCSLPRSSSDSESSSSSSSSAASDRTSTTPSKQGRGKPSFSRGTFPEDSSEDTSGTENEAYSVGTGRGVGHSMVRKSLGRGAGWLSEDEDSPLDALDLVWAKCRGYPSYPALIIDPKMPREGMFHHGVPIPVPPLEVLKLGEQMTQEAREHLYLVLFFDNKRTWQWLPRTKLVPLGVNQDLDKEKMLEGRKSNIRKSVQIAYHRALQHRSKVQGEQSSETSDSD

[10] = target: Histone acetyltransferase KAT2A (Homo sapiens, UniProt Q92830); experiment: Binding affinity to KAT2A in human HUT78 cells incubated for 45 mins by mass spectrometry based bromosphere chemoproteomic assay; assay type: cell-based
Histone acetyltransferase KAT2A, sequence (Q92830 whole entry): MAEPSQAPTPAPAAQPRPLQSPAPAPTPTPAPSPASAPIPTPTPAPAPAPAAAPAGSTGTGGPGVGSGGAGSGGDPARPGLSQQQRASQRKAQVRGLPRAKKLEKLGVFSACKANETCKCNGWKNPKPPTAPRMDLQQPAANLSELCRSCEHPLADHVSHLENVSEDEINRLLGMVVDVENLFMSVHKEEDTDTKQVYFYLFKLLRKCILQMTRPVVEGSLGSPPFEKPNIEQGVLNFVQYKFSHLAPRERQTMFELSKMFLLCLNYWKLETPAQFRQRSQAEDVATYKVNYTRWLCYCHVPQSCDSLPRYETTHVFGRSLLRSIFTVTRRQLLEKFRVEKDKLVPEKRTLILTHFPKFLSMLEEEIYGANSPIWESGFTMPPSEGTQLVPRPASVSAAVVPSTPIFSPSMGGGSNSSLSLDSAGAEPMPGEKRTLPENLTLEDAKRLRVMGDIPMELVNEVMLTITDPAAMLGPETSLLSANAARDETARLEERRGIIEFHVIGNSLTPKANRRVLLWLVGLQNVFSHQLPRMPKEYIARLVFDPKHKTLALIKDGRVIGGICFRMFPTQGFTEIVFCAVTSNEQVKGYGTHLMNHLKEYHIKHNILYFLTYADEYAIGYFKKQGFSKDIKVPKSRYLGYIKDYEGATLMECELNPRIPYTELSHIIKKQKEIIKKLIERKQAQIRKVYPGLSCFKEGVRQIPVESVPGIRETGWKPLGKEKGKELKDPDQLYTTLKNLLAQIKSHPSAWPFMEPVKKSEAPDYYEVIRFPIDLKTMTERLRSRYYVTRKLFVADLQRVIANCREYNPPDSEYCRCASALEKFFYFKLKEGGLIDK

[11] = target: Histone acetyltransferase KAT2B (Homo sapiens, UniProt Q92831); experiment: Binding affinity to KAT2B in human HUT78 cells incubated for 45 mins by mass spectrometry based bromosphere chemoproteomic assay; assay type: cell-based
Histone acetyltransferase KAT2B, sequence (Q92831 whole entry): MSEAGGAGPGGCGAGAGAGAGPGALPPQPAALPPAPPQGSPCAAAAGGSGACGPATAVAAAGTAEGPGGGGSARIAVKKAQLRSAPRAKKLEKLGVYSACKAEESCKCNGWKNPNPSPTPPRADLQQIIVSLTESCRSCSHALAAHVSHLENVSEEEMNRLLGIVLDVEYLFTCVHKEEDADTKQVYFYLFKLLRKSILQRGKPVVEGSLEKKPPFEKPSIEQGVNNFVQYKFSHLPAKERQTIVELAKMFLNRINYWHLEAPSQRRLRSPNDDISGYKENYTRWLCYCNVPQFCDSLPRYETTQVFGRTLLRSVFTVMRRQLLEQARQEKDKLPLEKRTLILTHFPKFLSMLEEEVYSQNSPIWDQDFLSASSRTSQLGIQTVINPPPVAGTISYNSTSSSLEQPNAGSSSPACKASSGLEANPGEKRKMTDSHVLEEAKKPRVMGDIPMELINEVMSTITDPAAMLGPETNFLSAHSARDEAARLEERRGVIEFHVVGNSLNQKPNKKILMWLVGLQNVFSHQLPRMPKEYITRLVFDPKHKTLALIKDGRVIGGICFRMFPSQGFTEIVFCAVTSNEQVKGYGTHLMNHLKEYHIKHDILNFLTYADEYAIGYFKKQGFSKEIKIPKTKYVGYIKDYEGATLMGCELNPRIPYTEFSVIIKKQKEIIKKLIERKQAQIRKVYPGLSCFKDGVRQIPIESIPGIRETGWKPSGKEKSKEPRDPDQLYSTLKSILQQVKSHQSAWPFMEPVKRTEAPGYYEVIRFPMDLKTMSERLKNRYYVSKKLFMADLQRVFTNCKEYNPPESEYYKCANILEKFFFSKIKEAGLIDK

[12] = target: T1, Transcription initiation factor TFIID subunit 1; experiment: Binding affinity to TAF1 in human HUT78 cells incubated for 45 mins by mass spectrometry based bromosphere chemoproteomic assay; assay type: cell-based
[13] = target: T2, Bromodomain-containing protein 2; experiment: Binding affinity to BRD2 containing BD1 bromodomains (unknown origin) by TR-FRET assay
[14] = target: T3, Bromodomain-containing protein 3; experiment: Binding affinity to BRD3 containing BD1 bromodomains (unknown origin) by TR-FRET assay
[15] = target: Bromodomain testis-specific protein (Homo sapiens, UniProt Q58F21); experiment: Binding affinity to BRDt containing BD1 bromodomains (unknown origin) by TR-FRET assay
[16] = target: T2, Bromodomain-containing protein 2; experiment: Binding affinity to BRD2 containing BD2 bromodomains (unknown origin) by TR-FRET assay
[17] = target: T3, Bromodomain-containing protein 3; experiment: Binding affinity to BRD3 containing BD2 bromodomains (unknown origin) by TR-FRET assay
[18] = target: T4, Bromodomain-containing protein 4; experiment: Binding affinity to BRD4 containing BD2 bromodomains (unknown origin) by TR-FRET assay
[19] = target: Bromodomain-containing protein 4 (Homo sapiens, UniProt O60885, Y390A)
physchem = conditions: phosphate buffered saline, pH 7.4, solubility
Description: Solubility of the compound in phosphate buffered saline at pH 7.4 after 1 hr by CLND method

Cc1cncc(-c2cnc(N[C@@H]3CCN(C)C[C@H]3OCC3CCS(=O)(=O)CC3)c3[nH]c(=O)c(C)cc23)c1
chromatographic logD [1]: 2.3
Ki [2]: 0.0501 µM
Ki [3]: 0.126 µM
Ki [4]: 0.794 µM
Kd [5]: > 100 µM
Kd [6]: > 100 µM
Kd [7]: 20 µM
Kd [8]: > 100 µM
Kd [9]: 20 µM
Kd (Peregrin): > 100 µM
Kd [10]: > 100 µM
Kd [11]: > 100 µM
Kd [12]: 1.26 µM
IC50 [13]: > 50.1 µM
IC50 [14]: > 50.1 µM
IC50 [15]: > 50.1 µM
IC50 [16]: > 50.1 µM
IC50 [17]: > 50.1 µM
IC50 [18]: > 501 µM
IC50 [19]: 79.4 µM
solubility kinetic at 1 h (physchem): ≥ 341 µM
